Data set [1] has as its system Cortical neurons from Kcnt1^R455H heterozygous mice. As to the kind of experiment: Neuronal electrophysiology (current clamp and voltage clamp). The format is cell-based, mouse. Conditions: 10 μM, 20 minutes, vs vehicle control. Here is the method:
Cortical neurons from Kcnt1^R455H heterozygous mice were cultured and treated for 20 minutes with 10 μM of a compound of Formula (I-A) in DMSO. Presumed glutamatergic neurons were identified based on pyramidal morphology. Presumed GABAergic neurons were identified based on spindle morphology (and fast spiking pattern in the control recordings). Current clamp and voltage clamp recordings were performed on an Axon Multiclamp 700B amplifier. It was observed that pyramidal cells treated with vehicle control had many action potentials and mild adaptation in response to an inward current and large outward currents with depolarization.

Data set [2] in a line: Brain exposure in pups after maternal dosing (LC-MS/MS). The format is in vivo, mouse. The settings on record: KCNT1^R455H/R455H pups, individual, brain collected when found deceased; maternal 75 mg/kg s.c. Here is the method: (§1) Whole brains were collected from all pups at 14 days after birth or at the time they are found deceased. Tails were genotyped through an automated system (Transnetyx) which was previously validated against PCR-based RFLP and sequencing. The whole brains were analyzed to determine brain exposure of Formula (I-A).
Bioanalysis of Brain Samples: Brain tissue was homogenized in 10:1 (v/wt) ratio using 10 mM PBS in methanol (2:1, v/v). 20 μL of samples were then precipitated with 200 μL IS solution (100 ng/mL Labetalol & 100 ng/mL Tolbutamide in ACN). The mixture was vortex-mixed and centrifuged at 4000 rpm for 15 min, 4° C. An aliquot of 100 μL supernatant was transferred to a sample plate and mixed with 100 μL water. The plate was shaken at 800 rpm for 10 minutes. 1 μL supernatant was then injected for LC-MS/MS analysis. A 1-3000 ng/ml PRX-0002904 calibration curve was prepared in mouse brain homogenate. Ultra-performance liquid chromatography (UPLC) parameters conditions are provided in Table 5 below, and the results are shown in Table 6 below.

The subject of data set [3] is Kcnt1^R455H/+ heterozygous mice. As to the kind of experiment: PTZ-induced seizures in Kcnt1^R455H/+ heterozygous mice. The format is in vivo, mouse. The settings on record: for Convulsive seizure latency: hazard ratio (drug/vehicle): log rank test; for Latency (s) to clonic or tonic seizures with loss of posture: individual animals, 1320 s = no seizure observed over the experiment, 75 mg/kg. Here is the method: Kcnt1^R455H/+ heterozygous mice have increased sensitivity to PTZ seizure induction as compared with wild-type littermates. It was determined herein whether a compound of Formula (I-A) delivered prior to PTZ could delay the onset of convulsive seizures. Formula (I-A) (75 mg/kg s.c.) or a vehicle control was administered as a single dose. After a pretreatment period of one or two hours, mice were administered PTZ at a dose of 55 mg/kg for induction of seizures. Seizures were then scored based on behavior (no EEG). The latency to convulsive seizures was compared between groups to determine if the compound can prevent induced seizures.
Animals: Adult Kcnt1^R455H/+ heterozygous C57/B6J mice were used in this example. Mice were approximately 2 months old. No preference was made for male or female animals.
Drug preparation and delivery: A 7.5 mg/mL solution of a compound of Formula (I-A) was prepared on each day of injection in 10% DMSO/10% Solutol/80% deionized water with a volume sufficient for 10-20 animals. After at least 30 minutes of acclimatization to the testing environment, either the drug or vehicle control was delivered to each animal subcutaneously at a dose of 75 mg/kg based on current body weight.
PTZ injection and testing: Kcnt1^R455H/+ mice were tested with PTZ 55 mg/kg IP administered 1 or 2 hours after administration of either the compound of Formula (I-A) 75 mg/kg SC or vehicle control. Mice were then monitored continuously for 30 min by an observer blinded to treatment group. […] Latency to first clonic seizure with loss of posture was recorded and compared using the time to event analysis; log-rank Mantel-Cox in GraphPad Prism, p<0.05 was considered statistically significant. Seizures induced by PTZ were scored using a modified Racine scale, and the latency to convulsive seizures was compared between drug and vehicle groups (log rank test).
Behavior was scored live, and mice were recorded on video for later confirmation. Seizure severity scores were based on a recent report that is specifically designed for mouse PTZ experiments (Van Erum et al., Epilepsy and Behavior 2019 June; 95:51-55). Behavioral seizure scores were as follows: • −1: normal baseline • 0: whisker trembling • 1: behavioral arrest • 2: facial jerking • 3: neck jerks/myoclonus • 4: clonic (sitting) • 5: clonic, tonic-clonic (lying on belly) • 6: clonic, tonic-clonic (lying on side), and wild jumping • 7: tonic extension, possibly leading to respiratory arrest and death.
The time at which mice reached each stage was recorded. It was difficult to reliably ascertain grade 0-2 seizures without the aid of EEG, and there was inconsistency between reviewers for stage 3-5 seizures. As the clearest and most consistent (between examiners) scores were for stage 6-7, only these were used for reporting and analysis, although earlier scores were also recorded and saved. Latency to stage 6 or above seizures were plotted as survival curves, and differences were assessed with a long rank test. Scoring was cut off after 22 minutes post-PTZ administration (1320 seconds).

A further data set concerns Kcnt1^R455H/R455H pups. Kind of data set: Survival of R455H homozygous pups after dosing of pregnant dams. The format is in vivo, mouse. Conditions: for Age survived before death or euthanasia: individual, dams 75 mg/kg s.c. Here is the method:
Quraishi et. al. PMID 32081855. Without wishing to be bound by theory, it is thought that inhibition of mutant channel activity by KCNT1 inhibitors, such as the compound of Formula (I-A), during gestation might aid the survival of homozygous pups. Timed matings were performed on heterozygote breeding pairs, and a compound of Formula (I-A) was administered to the pregnant dams. No dosing of the live pups with Formula (I-A) was performed. All surviving and stillborn offspring that could be recovered were then genotyped, and brains were dissected and sent for measurement of Formula (I-A).
Breeding and dosing: Timed matings were performed on three KCNT1^R455H+×KCNT1^R455H/+ breeding pairs. Maternal injections of Formula (I-A) (75 mg/kg s.c.) were performed for four pregnant dams from three Kcnt1^R455H/+×Kcnt1^R455H/+ breeding pairs and one Kcnt1^+/+×Kcnt1^+/+ breeding pair. Starting approximately 13 days after the mating plug was identified, pregnant dams were administered 75 mg/kg Formula (I-A) (s.c.) every 3 days (as permitted) through the time of delivery. There was some variability in the days of administration as noted. Offspring were observed daily after delivery. The records of litters and treatment dates are shown below in Table 3. In round one, two doses of Formula (I-A) were delivered to each of the two dams from the Kcnt1^R455H/+×Kcnt1^R455H/+ crosses. […] In round two, three doses of Formula (I-A) were delivered to one dam from a Kcnt1^R455H/+×Kcnt1^R455H/+ cross.
as §1

Data set [4] deals with Kcnt1^R455H/+ heterozygous mice. Kind of data set: Spontaneous interictal epileptiform discharges (spikes) on EEG. The format is in vivo, mouse. The settings on record: 75 mg/kg s.c. The source says: Infrequent spontaneous seizures also occur in some Kcnt1^R455H/+ heterozygous mice. This experiment sought to determine if administration of a compound of Formula (I-A) could reduce interictal spikes.
Animals: Adult Kcnt1^R455H/+ heterozygous mice on a C57/B6J background were used in all experiments disclosed in this example. Mice were approximately 2-3 months old. No preference was made for male or female animals. This strain is almost always stillborn in the homozygous condition. Seizures occur in some but not all heterozygotes, and interictal discharges occurs reliably.
Implantation of EEG electrodes: Mice were anesthetized with inhaled isoflurane 3-4% induction followed by approximately 1-1.5% maintenance titrated to effect. The head was fixed in a Kopf stereotactic apparatus, and the scalp was sterilized with povidone-iodine. The temperature was regulated to 37 degrees Celsius with a heating pad and rectal probe. Pre-emptive analgesia was provided with subgaleal bupivacaine 0.1% administered to form a wheal on the scalp, no more than 0.08 mL/10 g body weight. A linear midline scalp incision was made from behind the eyes to expose skull markers. Four holes were drilled (#60 drill bit): two anterior to the coronal suture (for left and right active recording), and two ⅔ of the way from the frontal to lambdoid suture (for reference and ground), […]. Screw electrodes were inserted in each burr hole (size W00-96×1.6 mm soldered to 15 mm insulated wire) and connected to a plastic pedestal (PlasticsOne E363). This assembly was then secured with dental cement. Meloxicam 5 mg/kg IP was given for post-operative analgesia.
Drug preparation for mice under EEG: A 7.5 mg/mL solution of a compound of Formula (I-A) was prepared on the day of injection in 10% DMSO/10% Solutol/80% deionized water. After at least 72 hours of baseline recording, the compound of Formula (I-A) was delivered subcutaneously at a dose of 75 mg/kg based on pre-surgical body weight.
EEG recording and analysis: Mice were held in a heated cage for at least 24 hours to recover before connection to the EEG recording system. Two-channel EEG with video was recorded using a Compumedics Grael EEG amplifier at 512 Hz sampling rate. The entire EEG was reviewed manually, and all interictal discharges and seizures were identified and marked. Video recordings were used to confirm epileptiform activity. Mice that had adequate recording quality and interictal spikes were selected for drug delivery. […] EEG recordings were manually scored by a reviewer blinded to treatment group. […]
EEG data were collected and reviewed in Compumedics Profusion. […] Average interictal discharge rates were determined in the baseline period and in the first, second, and third post-injection days (FIG. 3A). […]

Molecules are shown by their SMILES. “And” between values parts separate entries of the source, which are not always exact repeats. Equal entries are not always repeated. “Also recorded” adds a separate entry of the source.

Consider `C[C@H](NC(=O)c1cc(C(F)(F)F)nn1C)c1nc(-c2ccnc(C(F)(F)F)c2)no1` [Formula (I-A)], for which the “action potential firing and outward currents, pyramidal cells (presumed glutamatergic)” value in data set [1] is “less sustained action potential firing and diminished outward currents”. The “spike rates and outward currents, presumed GABAergic neurons” value in data set [1] was “markedly reduced spike rates and outward currents”. For the same molecule, the “Brain Homogenate Concentration” value in data set [2] is 15.2 ng/mL and 133 ng/mL and 109 ng/mL and 16.9 ng/mL. For the same molecule, the “Brain Homogenate Concentration (ng/mL)” value in data set [2] was “BLQ”. The “Final brain concentration” value in data set [2] is 167 ng/g and 1458 ng/g and 1200 ng/g and 354 ng/g. Also, the “Final brain concentration (ng/g)” value in data set [2] is recorded as “BLQ”. Further, the “animals with PTZ-induced convulsive seizures” value in data set [3] (75 mg/kg s.c., 1 hour pretreatment before PTZ 55 mg/kg IP, 1/16 animals, vehicle 6/15 (40%)) is 6%. Moreover, the “Convulsive seizure latency: hazard ratio (drug/vehicle)” value is given as 0.13 (95% CI 0.03-0.58) in data set [3] (75 mg/kg s.c., 1 hour pretreatment before PTZ 55 mg/kg IP) and 0.056 (95% CI 0.019-0.161) in data set [3] (75 mg/kg s.c., 2 hours pretreatment before PTZ 55 mg/kg IP). Besides, the “mice with a seizure that reached stage 6-7” value in data set [3] (75 mg/kg s.c., 2 hours prior to PTZ 55 mg/kg IP, 1 out of 20 mice, vehicle 13 out of 20 (65%)) stood at 5%. Also, in data set [3] (75 mg/kg s.c., compared to vehicle-treated mice), the “effect on PTZ-induced seizures (in words)” value was “anticonvulsant against PTZ-induced seizures; also recorded: significantly increased the latency to and reduced the incidence of PTZ-induced seizures”. Also, the “Latency (s) to clonic or tonic seizures with loss of posture” value in data set [3] (75 mg/kg s.c. 1 hour prior to PTZ) was 1320 s (14×) and 190 s and 647 s; in data set [3] (75 mg/kg s.c. 2 hours prior to PTZ), 1320 s (19×) and 294 s. For the same molecule, the “Age survived before death or euthanasia” value is 14 days in the data set with Kcnt1^R455H/R455H pups (Kcnt1^+/+ pups, 2 or 3 doses, brains collected at 14 days); 14 days in the data set with Kcnt1^R455H/R455H pups (Kcnt1^R455H/+ pups, 2 or 3 doses, brains collected at 14 days); 1 days (3×) and 2 days with Kcnt1^R455H/R455H pups (Kcnt1^R455H/R455H pups, 2 doses (litters 1, 2) or 3 doses (litter 3), pups not dosed, dams given 2 doses); 4 days with Kcnt1^R455H/R455H pups (Kcnt1^R455H/R455H pups, 2 doses (litters 1, 2) or 3 doses (litter 3), pups not dosed, dams given 3 doses). Also, the “Kcnt1^R455H/R455H pups that survived multiple days” value in the data set with Kcnt1^R455H/R455H pups (maternal dosing 75 mg/kg s.c.) was “Two of five”. Also, the “survival of Kcnt1^R455H/R455H pups born alive (in words)” value with Kcnt1^R455H/R455H pups (round one: two doses 75 mg/kg s.c. to each of two dams, four pups born alive) is “three surviving for one day and one surviving two days”. The “survival of Kcnt1^R455H/R455H pup (in words)” value with Kcnt1^R455H/R455H pups (round two: three doses 75 mg/kg s.c. to one dam, one pup) is “survived for four days”. Also, the “interictal spike rate, first 24 hours after dosing vs preceding 72-hour baseline” value in data set [4] (N=12, p=0.005) is recorded as “marked per-animal reduction; also recorded: reduced”. Moreover, in data set [4] (N=12, p=0.042), the “interictal spike rate, second day after dosing vs baseline” value is reported as “reduction persisted”. For the same molecule, the “interictal spike rate reduction, third day after dosing vs baseline” value in data set [4] (N=12, p>0.999) was “no longer evident”. Moreover, the “mice with a decrease in spike rates from baseline to Day 1” value in data set [4] (baseline-adjusted spike rates) was 11 out of 12.

Source of the values: patent publication US20250360117A1, “KCNT1 INHIBITORS COMPRISING AN ISOXAZOLE OR OXADIAZOLE CORE AND METHODS OF USE” (PRAXIS PRECISION MEDICINES, INC., priority 2022, published 2025).
